# Measured values taken from patent US20210300912A1 (Ikena Oncology, Inc., priority 2019, published 2021).
# pEC50: −log10 of the molar value. Like-named read-outs stand apart in the source and are kept apart here.
# What was measured:
# AHR [1] = target: T1, AHR (Homo sapiens, UniProt P35869); experiment: DRE-Luciferase Reporter Assay, HepG2, agonist; format: cell-based; conditions: HepG2 cells, agonist mode
# T1 construct: endogenous in cells; host or cells: HepG2 (human), DRE-luciferase reporter stably or transiently transfected
# T1 sequence (P35869 11-848): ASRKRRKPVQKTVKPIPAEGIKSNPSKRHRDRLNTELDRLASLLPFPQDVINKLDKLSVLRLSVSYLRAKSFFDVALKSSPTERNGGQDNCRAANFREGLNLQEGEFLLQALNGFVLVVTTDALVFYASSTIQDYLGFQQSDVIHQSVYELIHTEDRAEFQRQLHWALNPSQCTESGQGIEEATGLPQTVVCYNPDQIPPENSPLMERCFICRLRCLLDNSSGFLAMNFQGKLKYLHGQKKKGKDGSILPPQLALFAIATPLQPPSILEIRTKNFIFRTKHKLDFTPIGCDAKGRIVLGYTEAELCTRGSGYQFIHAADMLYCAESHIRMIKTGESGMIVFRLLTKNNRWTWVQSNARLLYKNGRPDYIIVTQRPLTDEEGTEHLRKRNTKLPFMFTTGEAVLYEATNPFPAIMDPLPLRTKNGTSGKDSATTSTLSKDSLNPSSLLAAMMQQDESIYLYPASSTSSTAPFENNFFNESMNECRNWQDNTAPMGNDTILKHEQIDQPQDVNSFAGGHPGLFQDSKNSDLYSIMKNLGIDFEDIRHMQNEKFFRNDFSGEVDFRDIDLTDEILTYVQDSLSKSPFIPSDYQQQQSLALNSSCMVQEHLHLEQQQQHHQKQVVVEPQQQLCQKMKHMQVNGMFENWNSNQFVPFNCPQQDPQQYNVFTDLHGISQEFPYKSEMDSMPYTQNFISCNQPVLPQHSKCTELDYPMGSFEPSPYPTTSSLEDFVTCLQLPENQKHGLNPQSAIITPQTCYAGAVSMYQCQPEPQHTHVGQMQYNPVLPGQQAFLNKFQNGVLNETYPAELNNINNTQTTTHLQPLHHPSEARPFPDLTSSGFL
# Experimental: (§1) AHR binds to Dioxin Responsive Elements (DRE) upstream of genes that it activates. One measure of AHR activity is activation of a reporter gene, such as luciferase, downstream of one or multiple DRE elements. Luciferase activity will reflect activation and inhibition of AHR in the cells expressing this reporter.
# (§2) Murine Hepa1-6 or Hepa-1c1c7 or other murine cell line with a DRE-luciferase reporter either stably or transiently transfected are plated in media in plates (96-well, 384-well or other plates) and incubated overnight at 37 C in a CO2 incubator. Likewise, human HepG2 or other human cell line with a DRE-luciferase reporter either stably or transiently transfected are plated in media in plates (96-well, 384-well or other plates) and incubated overnight at 37 C in a CO2 incubator.
# (§3) The next day, an AHR agonist compound is added. Cells are incubated for 6, 16 or 24 hours or another time point and then lysed for determination of luciferase activity as a read-out of the AHR activation. Luciferase can be measured with a commercial kit such as the Promega Luciferase kit or any kit or reagents that provide the luciferin substrate for measuring luciferase activity. The level of luciferase with only activating ligand (e.g. such as TCDD, kynurenine, ITE (2-(1H-indole-3-ylcarbonyl)-4-thiazolecarboxylic methyl ester), VAF347, BNF (beta-naphthoflavone), ICZ (6-formylindolo(3,2-b) carbazole or other AHR ligands) added is the maximum signal while the luciferase with no ligand is the minimum signal. EC50s can be determined as the concentration which activates half of the maximum luciferase activity.
# AHR [2] = target: T2, AHR (Mus musculus, UniProt P30561); experiment: DRE-Luciferase Reporter Assay, Hepa1.6, agonist; format: cell-based, murine; conditions: Hepa1.6 cells, agonist mode; for EC50: DRE-Luc Hepa1.6 - Agonist: Average EC50 (μM), Table 3; for pEC50: Table 3, read-out: DRE-Luc Hepa1.6 - Agonist: Average EC50
# T2 construct: endogenous in cells; host or cells: Hepa1-6 / Hepa1.6 (murine hepatoma); DRE-luciferase reporter transfected in A3, no transfection in A2
# T2 sequence (P30561 10-805 limits assumed): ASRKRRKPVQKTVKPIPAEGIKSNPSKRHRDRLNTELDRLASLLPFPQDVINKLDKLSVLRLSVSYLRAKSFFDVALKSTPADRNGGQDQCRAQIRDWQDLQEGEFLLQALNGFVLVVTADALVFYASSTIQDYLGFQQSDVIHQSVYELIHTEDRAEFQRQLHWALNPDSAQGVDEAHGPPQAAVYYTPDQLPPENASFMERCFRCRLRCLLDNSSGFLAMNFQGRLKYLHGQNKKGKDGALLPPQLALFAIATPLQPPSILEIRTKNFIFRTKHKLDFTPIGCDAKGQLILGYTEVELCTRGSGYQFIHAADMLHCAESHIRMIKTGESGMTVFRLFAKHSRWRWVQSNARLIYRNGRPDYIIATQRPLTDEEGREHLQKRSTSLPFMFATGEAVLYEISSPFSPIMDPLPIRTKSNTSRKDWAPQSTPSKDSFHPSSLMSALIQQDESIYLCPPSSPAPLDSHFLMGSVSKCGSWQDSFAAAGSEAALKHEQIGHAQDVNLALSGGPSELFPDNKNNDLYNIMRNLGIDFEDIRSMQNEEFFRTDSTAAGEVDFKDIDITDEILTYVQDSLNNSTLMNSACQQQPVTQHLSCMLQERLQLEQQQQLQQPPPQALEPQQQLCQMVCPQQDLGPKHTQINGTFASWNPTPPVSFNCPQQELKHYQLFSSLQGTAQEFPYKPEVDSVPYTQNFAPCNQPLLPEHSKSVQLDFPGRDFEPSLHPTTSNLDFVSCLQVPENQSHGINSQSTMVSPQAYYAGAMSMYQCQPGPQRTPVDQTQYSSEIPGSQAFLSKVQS
# T2 sequence (P11499 whole entry partner): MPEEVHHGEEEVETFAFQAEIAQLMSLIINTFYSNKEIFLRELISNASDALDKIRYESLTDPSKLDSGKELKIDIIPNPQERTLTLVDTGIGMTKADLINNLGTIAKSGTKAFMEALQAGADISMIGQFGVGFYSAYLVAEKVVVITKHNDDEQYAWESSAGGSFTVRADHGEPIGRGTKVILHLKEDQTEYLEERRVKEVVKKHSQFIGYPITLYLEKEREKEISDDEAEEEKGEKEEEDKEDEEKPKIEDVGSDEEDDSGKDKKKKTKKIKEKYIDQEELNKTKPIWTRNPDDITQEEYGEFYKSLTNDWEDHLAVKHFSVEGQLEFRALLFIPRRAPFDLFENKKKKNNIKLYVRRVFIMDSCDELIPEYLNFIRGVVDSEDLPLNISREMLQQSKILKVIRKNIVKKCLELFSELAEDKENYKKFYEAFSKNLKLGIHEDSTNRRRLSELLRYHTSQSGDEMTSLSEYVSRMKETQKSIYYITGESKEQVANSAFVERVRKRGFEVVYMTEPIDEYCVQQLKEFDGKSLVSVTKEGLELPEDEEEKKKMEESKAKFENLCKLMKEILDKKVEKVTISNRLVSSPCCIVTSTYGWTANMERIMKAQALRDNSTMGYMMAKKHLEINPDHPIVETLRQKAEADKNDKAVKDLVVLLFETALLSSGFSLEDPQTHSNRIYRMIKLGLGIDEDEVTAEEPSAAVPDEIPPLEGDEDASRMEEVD
# T2 sequence (O08915 whole entry partner): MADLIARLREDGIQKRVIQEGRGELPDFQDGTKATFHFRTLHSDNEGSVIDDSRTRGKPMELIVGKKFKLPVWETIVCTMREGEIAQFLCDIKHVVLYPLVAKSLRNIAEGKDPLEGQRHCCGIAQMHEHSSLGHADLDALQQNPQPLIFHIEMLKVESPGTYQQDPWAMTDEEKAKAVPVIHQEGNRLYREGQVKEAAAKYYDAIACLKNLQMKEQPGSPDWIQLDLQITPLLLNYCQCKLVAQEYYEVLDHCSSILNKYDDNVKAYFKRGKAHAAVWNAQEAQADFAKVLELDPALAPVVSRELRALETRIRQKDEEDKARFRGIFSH
# Experimental: as §1, §2, §3
# [3] = Table 3, read-out: DRE-Luc HepG2 - Agonist: Average EC50
# [4] = Table 2, read-out: DRE-Luc HepG2 - Agonist: Average EC50
Compound,pEC50 (AHR [1]; [4]),other results
COC(=O)c1csc(C(=O)c2c[nH]c3cc([N+](=O)[O-])ccc23)n1 [Compound I-90],,pEC50 (AHR [1]; [3]): 7.00 to 8.00; EC50 (AHR [2]): 0.01 to 0.1 µM
"CN(C)C(=O)c1csc(C(=O)c2c[nH]c3ccccc23)n1 [Compound I-3, 2-(1H-Indole-3-carbonyl)-N,N-dimethyl-thiazole-4-carboxamide]",7.00 to 8.00,
CC(C)c1sc(C(=O)c2c[nH]c3ccccc23)nc1C(=O)O [Compound I-32],< 6.00,
COC(=O)c1nc(C(=O)c2c[nH]c3ccccc23)sc1Br [Compound I-53],,pEC50 (AHR [1]; [3]): > 8.00; EC50 (AHR [2]): 0.01 to 0.1 µM
COC(=O)c1nc(C(=O)c2c[nH]c3ccccc23)sc1C [Compound I-14],6.00 to 7.00,
O=C(OCCOCCO)c1csc(C(=O)c2c[nH]c3ccccc23)n1 [Compound P-6],6.00 to 7.00,
COC(=O)c1csc(C(=O)c2c[nH]c3cccnc23)n1 [Compound P-18],< 6.00,
CC(C)c1csc(C(=O)c2c[nH]c3cc(C(=O)OCCOCCO)ccc23)n1 [Compound I-94],,pEC50 (AHR [1]; [3]): < 6.00; pEC50 (AHR [2]): < 6.00
N#Cc1nc(C(=O)c2c[nH]c3ccccc23)sc1Br [Compound I-97],,pEC50 (AHR [1]; [3]): 6.00 to 7.00; pEC50 (AHR [2]): < 6.00
Nc1sc(C(=O)c2c[nH]c3ccccc23)nc1C(F)(F)F [Compound I-51],,pEC50 (AHR [1]; [3]): > 8.00; EC50 (AHR [2]): < 0.01 µM
COC(=O)c1csc(C(=O)c2c[nH]c3ccc(O)cc23)n1 [Compound I-44],< 6.00,
COC(=O)c1csc(C(=O)c2cn(C)c3ccccc23)n1 [Compound P-16],< 6.00,
NCCOCCNC(=O)c1csc(C(=O)c2c[nH]c3ccccc23)n1 [Compound I-42],< 6.00,
CN1CCN(C(=O)c2csc(C(=O)c3c[nH]c4ccccc34)n2)CC1 [Compound I-25],< 6.00,
"CN(C)CCOCCNC(=O)c1csc(C(=O)c2c[nH]c3ccccc23)n1 [Compound I-34, N-[2-[2-(Dimethylamino)ethoxy]ethyl]-2-(1H-indole-3-carbonyl)thiazole-4-carboxamide]",< 6.00,
Cn1cc(C(=O)O)nc1C(=O)c1c[nH]c2ccccc12 [Compound I-43],< 6.00,
"O=C(c1nc(C(=O)N2CCCCC2)cs1)c1c[nH]c2ccccc12 [Compound I-35, 1H-indol-3-yl-[4-(piperidine-1-carbonyl)thiazol-2-yl]methanone]",< 6.00,
NC(=O)c1csc(C(=O)c2c[nH]c3ccccc23)n1 [Compound P-5],7.00 to 8.00,
COC(=O)c1csc(C(=O)c2c[nH]c3cc(O)ccc23)n1 [Compound I-45],< 6.00,
O=C(O)CCOCCNC(=O)c1csc(C(=O)c2c[nH]c3ccccc23)n1 [Compound I-26],< 6.00,
Cc1sc(C(=O)c2c[nH]c3ccccc23)nc1C(=O)OCCOCC[N+](C)(C)C [Compound I-1],> 8.00,
COC(=O)c1nc(C(=O)c2c[nH]c3cccc(C)c23)sc1C [Compound I-15],6.00 to 7.00,
COC(=O)c1nc(C(=O)c2c[nH]c3ccccc23)sc1C [Compound P-1],> 8.00,
CO/N=C(/c1nc(C(=O)OC)cs1)c1c[nH]c2ccccc12 [Compound P-11],< 6.00,
COC(=O)c1cnc(C(=O)c2c[nH]c3ccccc23)n1C [Compound I-33],< 6.00,
COC(=O)c1c[nH]c(C(=O)c2c[nH]c3ccccc23)n1 [Compound I-36],< 6.00,
"CC(C)(C)OC(=O)NCCOCCNC(=O)c1csc(C(=O)c2c[nH]c3ccccc23)n1 [Compound I-41, tert-Butyl N-[2-[2-[[2-(1H-indole-3-carbonyl)thiazole-4-carbonyl]amino]ethoxy]ethyl]carbamate]",< 6.00,

Compound,pEC50 (AHR [1]; [4]),other results
O=C(O)c1coc(C(=O)c2c[nH]c3ccccc23)n1 [Compound I-38],< 6.00,
COC(=O)c1csc([C@@H](O)c2c[nH]c3ccccc23)n1 [Compound P-15],< 6.00,
C[N+](C)(C)CCOCCNC(=O)c1csc(C(=O)c2c[nH]c3ccccc23)n1 [Compound I-22],< 6.00,
COC(=O)c1coc(C(=O)c2c[nH]c3ccccc23)n1 [Compound P-19],< 6.00,
"Cc1sc(C(=O)c2c[nH]c3ccccc23)nc1C(=O)NCCOCCO [Compound I-29, N-[2-(2-Hydroxyethoxy)ethyl]-2-(1H-indole-3-carbonyl)-5-methyl-thiazole-4-carboxamide]",< 6.00,
COC(=O)c1csc([C@H](O)c2c[nH]c3ccccc23)n1 [Compound P-14],< 6.00,
CO/N=C(\c1nc(C(=O)OC)cs1)c1c[nH]c2ccccc12 [Compound P-10],6.00 to 7.00,
CN(CCO)CCOC(=O)c1csc(C(=O)c2c[nH]c3ccccc23)n1 [Compound I-21],< 6.00,
Cc1sc(C(=O)c2c[nH]c3ccccc23)nc1C(=O)NCCOCC[N+](C)(C)C [Compound I-16],6.00 to 7.00,
COC(=O)c1csc(C(=O)n2cnc3ccccc32)n1 [Compound I-27],< 6.00,
COC(=O)c1csc(C(=O)c2c[nH]c3ccc(OC)cc23)n1 [Compound P-7],6.00 to 7.00,
COC(=O)c1csc(/C(=N\O)c2c[nH]c3ccccc23)n1 [Compound P-13],< 6.00,
COC(=O)c1csc(/C(=N/O)c2c[nH]c3ccccc23)n1 [Compound P-8],6.00 to 7.00,
COC(=O)c1csc(C(=O)c2n[nH]c3ccccc23)n1 [Compound P-17],< 6.00,
COC(=O)c1csc(C(=O)c2c[nH]c3cc(OC)ccc23)n1 [Compound I-6],6.00 to 7.00,
CN(CCOCCO)C(=O)c1csc(C(=O)c2c[nH]c3ccccc23)n1 [Compound I-12],6.00 to 7.00,
COC(=O)c1nc(C(=O)c2c[nH]c3ccccc23)sc1C(C)C [Compound I-31],< 6.00,
Cc1sc(C(=O)c2c[nH]c3ccccc23)nc1C(=O)NCCOCCN(C)C [Compound I-17],6.00 to 7.00,
C[N+]1(C)CCN(C(=O)c2csc(C(=O)c3c[nH]c4ccccc34)n2)CC1 [Compound I-28],< 6.00,
O=C(NCCOCCO)c1csc(C(=O)c2c[nH]c3ccccc23)n1 [Compound I-13],6.00 to 7.00,
O=C(O)COCCNC(=O)c1csc(C(=O)c2c[nH]c3ccccc23)n1 [Compound I-37],< 6.00,
Cn1c(C(=O)O)cnc1C(=O)c1c[nH]c2ccccc12 [Compound I-39],< 6.00,
C[N+](C)(C)CCOCCOC(=O)c1csc(C(=O)c2c[nH]c3ccccc23)n1 [Compound I-24],< 6.00,
Cc1sc(C(=O)c2c[nH]c3ccccc23)nc1C(=O)O [Compound I-40],< 6.00,
COC(=O)c1cn(C)c(C(=O)c2c[nH]c3ccccc23)n1 [Compound I-30],< 6.00,
O=C(OCCO)c1csc(C(=O)c2c[nH]c3ccccc23)n1 [Compound P-9],6.00 to 7.00,
